In patent US20230192700A1, “PYRAZOLOPYRAZINES ACTING ON CANCERS VIA INHIBITION OF CDK12” (Bayer Aktiengesellschaft, priority 2020, published 2023):
Where two headings read alike, the source gives them in different places.

Legend:
[1] = biological target: T1, CDK12 (Homo sapiens, UniProt Q9NYV4); test: CDK12 nuclear protein level: immunofluorescence/high content analysis in CAL-120 cells; assay type: cell-based; details: for DC50: CAL-120 cells, 24 h, nuclear CDK12 staining intensity, median, read-out: CDK12 degradation IF DC50 - [mol/l] (median); for (IC50 CDK12 high ATP) to (Degradation DC50 CDK12) ratio: ratio of IC50 CDK12 hATP (2 mM ATP) to DC50 CDK12 (IF, CAL-120)
T1 construct: endogenous in cells; host or cells: CAL-120 human breast cancer cells (DSMZ ACC 459)
Protocol: 6. CDK12 Nuclear Protein Level: Immunofluorescence/High Content Analysis
In the context of the present invention, the term “DC50 CDK12” refers to the DC50 values obtained according to the assay described in this section (6) herein below, i.e. the DC50 values for the degradation of CDK12.:
CAL-120 human breast cancer cells (DSMZ ACC 459) are seeded in 1536-well microtiter plates (800 cells per well) containing 50 nanoL of compounds in Dose-Response. Control wells received DMSO or Reference Example 1. Plates are then incubated for 24 h at 37° C. in an humidified incubator and fixed with 4% PFA for 10 min. Then immunofluorescence (IF) against CDK12 (CellSignalling CDK12 Antibody #11973, rabbit, 1:100 dilution) is performed using standard IF protocols. Cells are then stained with Hoechst 33342 (Life Technologies, H-1399, 0.1 microg/mL) and imaged on an automated confocal microscopy system (e.g. Perkin Elmer Opera Phenix). Nuclear and cytoplasmic intensity as well as the nuclear/cytoplasmic intensity ratio is determined by automated image analysis using custom generated scripts (MetaXpress). Data is then transferred to Genedata Screener software, normalized to DMSO and control and DC50 values (degrading concentration to achieve 50% reduction of nuclear CDK12 staining intensity relative to controls) are reported.

[2] = tested on: MDA-MB-231 human breast cancer cells; test: Proliferation assay MDA-MB-231 (crystal violet); assay type: cell-based; details: MDA-MB-231 cells, 4 days, median, read-out: Prolif-MDA MB231 IC50 - [mol/l] (median)
Protocol: 4. Proliferation assay: MDA-MB-231, CAL-120
Human tumour cells were originally obtained from the American Type Culture Collection (ATCC), or from the Deutsche Sammlung von Mikroorganismen and Zellkulturen (DSMZ, German Collection of Microorganisms and Cell Cultures). Cultivated tumour cells (CAL-120, human breast adenocarcinoma cells, DSMZ ACC-459; MDA-M B-231, human breast cancer cells, ATCC HTB-26) were plated at a density of 4,000 cells/well in a 96-well multititer plate in 200 microL of their respective growth medium supplemented 10% fetal calf serum. After 24 hours, the cells of one plate (zero-point plate) were stained with crystal violet (see below), while the medium of the other plates was supplemented with the test substances in various concentrations (0 micromol/L, as well as in the range of 0.01-10 micromol/L; the final concentration of the solvent dimethyl sulfoxide was adjusted to 0.1%) using a Tecan HP D300 Digital Dispenser. The cells were incubated for 4 days in the presence of test substances. Cell proliferation was determined by staining the cells with crystal violet: the cells were fixed by adding 20 microL/measuring point of an 11% glutaric aldehyde solution for 15 minutes at room temperature. After three washing cycles of the fixed cells with water, the plates were dried at room temperature. The cells were stained by adding 100 microL/measuring point of a 0.1% crystal violet solution (pH 3.0). After three washing cycles of the stained cells with water, the plates were dried at room temperature. The dye was dissolved by adding 100 microL/measuring point of a 10% acetic acid solution. The extinction was determined by photometry at a wavelength of 595 nm. The change of cell number, in percent, was calculated by normalization of the measured values to the extinction values of the zero-point plate(=0%) and the extinction of the untreated (0 μM) cells(=100%). The IC50 values (inhibitory concentration at 50% of maximal effect) were determined by means of a 4 parameter fit.

T1 sequence (Q9NYV4 whole entry): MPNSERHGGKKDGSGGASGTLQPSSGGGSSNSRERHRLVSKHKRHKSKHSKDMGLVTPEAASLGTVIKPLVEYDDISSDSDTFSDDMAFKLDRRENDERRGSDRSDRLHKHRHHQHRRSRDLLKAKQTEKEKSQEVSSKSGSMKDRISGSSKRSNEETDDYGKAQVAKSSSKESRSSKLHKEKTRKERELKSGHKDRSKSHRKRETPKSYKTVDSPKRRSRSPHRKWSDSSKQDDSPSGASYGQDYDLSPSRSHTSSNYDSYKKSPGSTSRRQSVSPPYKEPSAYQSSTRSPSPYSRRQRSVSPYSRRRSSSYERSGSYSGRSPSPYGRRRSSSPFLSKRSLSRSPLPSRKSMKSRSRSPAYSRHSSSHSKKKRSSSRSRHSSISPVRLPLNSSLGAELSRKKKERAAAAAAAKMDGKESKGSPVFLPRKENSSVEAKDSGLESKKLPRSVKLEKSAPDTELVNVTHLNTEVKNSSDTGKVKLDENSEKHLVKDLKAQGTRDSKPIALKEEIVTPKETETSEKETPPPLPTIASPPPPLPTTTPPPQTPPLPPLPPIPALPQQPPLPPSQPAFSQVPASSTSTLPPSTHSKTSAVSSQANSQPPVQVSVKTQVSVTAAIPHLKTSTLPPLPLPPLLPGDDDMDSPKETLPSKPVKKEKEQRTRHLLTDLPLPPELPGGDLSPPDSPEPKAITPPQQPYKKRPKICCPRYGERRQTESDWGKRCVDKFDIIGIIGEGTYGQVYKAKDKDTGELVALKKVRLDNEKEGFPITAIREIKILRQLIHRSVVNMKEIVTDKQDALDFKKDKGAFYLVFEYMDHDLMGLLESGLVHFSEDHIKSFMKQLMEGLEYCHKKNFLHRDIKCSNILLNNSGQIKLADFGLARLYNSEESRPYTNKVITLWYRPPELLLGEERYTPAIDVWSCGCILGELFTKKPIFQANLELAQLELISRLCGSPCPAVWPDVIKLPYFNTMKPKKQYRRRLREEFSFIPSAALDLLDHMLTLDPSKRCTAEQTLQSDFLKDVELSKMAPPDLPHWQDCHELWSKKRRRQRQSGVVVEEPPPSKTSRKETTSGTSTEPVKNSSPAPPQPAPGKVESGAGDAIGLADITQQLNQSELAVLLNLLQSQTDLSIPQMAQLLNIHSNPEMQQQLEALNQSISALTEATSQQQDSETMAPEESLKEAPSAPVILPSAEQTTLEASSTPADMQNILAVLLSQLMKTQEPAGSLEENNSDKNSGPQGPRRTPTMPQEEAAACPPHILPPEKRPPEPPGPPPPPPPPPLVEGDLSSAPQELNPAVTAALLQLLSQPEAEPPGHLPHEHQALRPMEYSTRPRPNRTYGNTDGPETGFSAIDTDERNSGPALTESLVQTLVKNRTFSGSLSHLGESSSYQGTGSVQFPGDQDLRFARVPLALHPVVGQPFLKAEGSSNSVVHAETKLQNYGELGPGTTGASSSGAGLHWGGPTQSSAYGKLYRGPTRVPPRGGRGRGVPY
T1 sequence (O75909 whole entry partner): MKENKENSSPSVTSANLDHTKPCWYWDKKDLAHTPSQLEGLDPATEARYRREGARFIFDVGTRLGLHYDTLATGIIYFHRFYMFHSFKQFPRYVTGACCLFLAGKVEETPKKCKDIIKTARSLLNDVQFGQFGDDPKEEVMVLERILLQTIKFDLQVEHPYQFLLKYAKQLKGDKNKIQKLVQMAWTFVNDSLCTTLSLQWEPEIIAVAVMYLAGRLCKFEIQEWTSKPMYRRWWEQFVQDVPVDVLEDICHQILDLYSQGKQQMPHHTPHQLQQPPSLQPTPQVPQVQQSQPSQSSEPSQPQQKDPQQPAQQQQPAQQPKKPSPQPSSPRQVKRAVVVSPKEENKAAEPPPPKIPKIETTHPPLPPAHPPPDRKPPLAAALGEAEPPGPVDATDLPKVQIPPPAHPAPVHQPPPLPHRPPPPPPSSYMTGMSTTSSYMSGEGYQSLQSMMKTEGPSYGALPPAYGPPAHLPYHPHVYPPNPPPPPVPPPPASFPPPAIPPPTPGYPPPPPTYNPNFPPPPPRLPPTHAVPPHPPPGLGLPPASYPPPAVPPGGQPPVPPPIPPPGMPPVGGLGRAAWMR

SMILES | DC50 [1] | IC50 ([2]; Homo sapiens, MDA-MB-231, 96 h) | (IC50 CDK12 high ATP) to (Degradation DC50 CDK12) ratio [1] | IC50 [2]
CN1CCCC(n2nc(NCc3nc4ccccc4[nH]3)c3ncc(C4CC4)nc32)CC1 (racemic) [Example 34, (±)-N-[(1H-benzimidazol-2-yl)methyl]-6-cyclopropyl-1-(1-methylazepan-4-yl)-1H-pyrazolo[3,4-b]pyrazin-3-amine] | 14.2 nM | 38.8 nM | – | –
CN1CCC(n2nc(NCc3nc4ccccc4[nH]3)c3ncc(C4CC4)nc32)C1 (racemic) [Example 35, (±)-N-[(1H-benzimidazol-2-yl)methyl]-6-cyclopropyl-1-(1-methylpyrrolidin-3-yl)-1H-pyrazolo[3,4-b]pyrazin-3-amine] | 19.1 nM | 59.5 nM | >1046 | –
CC1CC(n2nc(NCc3nc4ccccc4[nH]3)c3ncc(C4CC4)nc32)CCN1C (racemic) [Example 41, (±)-cis/trans-N-[(1H-benzimidazol-2-yl)methyl]-6-cyclopropyl-1-(1,2-dimethylpiperidin-4-yl)-1H-pyrazolo[3,4-b]pyrazin-3-amine] | 4.05 nM | 67.1 nM | – | –
CC1COCCC1n1nc(NCc2nc3ccccc3[nH]2)c2ncc(C3CC3)nc21 (racemic) [Example 42, (±)-cis/trans-N-[(1H-benzimidazol-2-yl)methyl]-6-cyclopropyl-1-(3-methyloxan-4-yl)-1H-pyrazolo[3,4-b]pyrazin-3-amine] | 11.1 nM | 148 nM | >2322 | –
CC(CCN(C)C)n1nc(NCc2nc3ccccc3[nH]2)c2ncc(C3CC3)nc21 (racemic) [Example 62, (±)-N-[(1H-benzimidazol-2-yl)methyl]-6-cyclopropyl-1-[4-(dimethylamino)butan-2-yl]-1H-pyrazolo[3,4-b]pyrazin-3-amine] | 676 nM | 873 nM | – | –
c1ccc2[nH]c(CNc3nn(C4CCOC4)c4nc(C5CC5)cnc34)nc2c1 (single isomer, unassigned) [Example 17, (+) or (−)-N-[(1H-benzimidazol-2-yl)methyl]-6-cyclopropyl-1-(oxolan-3-yl)-1H-pyrazolo[3,4-b]pyrazin-3-amine] | 24.8 nM | 137 nM | >807 | –
c1ccc2[nH]c(CNc3nn(C4CCOC4)c4nc(C5CC5)cnc34)nc2c1 (single isomer, unassigned) [Example 18, (-) or (+) -N-[(1H-benzimidazol-2-yl)methyl]-6-cyclopropyl-1-[oxolan-3-yl]-1H-pyrazolo[3,4-b]pyrazin-3-amine] | 17.5 nM | – | >1142 | 151 nM
CC(C)n1nc(NCc2nc3ccccc3[nH]2)c2ncc(C3CC3)nc21 [Example 14, N-[(1H-benzimidazol-2-yl)methyl]-6-cyclopropyl-1-(propan-2-yl)-1H-pyrazolo[3,4-b]pyrazin-3-amine] | 49.6 nM | – | >403 | –
CN1CCC(n2nc(NCc3nc4cc(SC(F)(F)F)ccc4[nH]3)c3ncc(C4CC4)nc32)CC1 [Example 27, 6-cyclopropyl-1-(1-methylpiperidin-4-yl)-N-({5-[(trifluoromethyl)sulfanyl]-1H-benzimidazol-2-yl}methyl)-1H-pyrazolo[3,4-b]pyrazin-3-amine] | 49.1 nM | – | 41 | –
O[C@H]1CC[C@@H](n2nc(NCc3nc4ccccc4[nH]3)c3ncc(C4CC4)nc32)CC1 [Example 51, cis-4-(3-{[(1H-benzimidazol-2-yl)methyl]amino}-6-cyclopropyl-1H-pyrazolo[3,4-b]pyrazin-1-yl)cyclohexan-1-ol] | 10.7 nM | – | – | –
O[C@H]1CC[C@H](n2nc(NCc3nc4cc(F)ccc4[nH]3)c3ncc(C4CC4)nc32)CC1 [Example 56, trans-4-(6-cyclopropyl-3-{[(5-fluoro-1H-benzimidazol-2-yl)methyl]amino}-1H-pyrazolo[3,4-b]pyrazin-1-yl)cyclohexan-1-ol] | 7.11 nM | – | – | –

Continued by falling DC50 [1], values first:

DC50 [1] | IC50 ([2]; Homo sapiens, MDA-MB-231, 96 h) | (IC50 CDK12 high ATP) to (Degradation DC50 CDK12) ratio [1] | IC50 [2] | SMILES
170 nM | 241 nM | >118 | – | COCCC(C)n1nc(NCc2nc3ccccc3[nH]2)c2ncc(C3CC3)nc21 (racemic) [Example 57, (±)-N-[(1H-benzimidazol-2-yl)methyl]-6-cyclopropyl-1-(4-methoxybutan-2-yl)-1H-pyrazolo[3,4-b]pyrazin-3-amine]
155 nM | – | >129 | – | Cn1nc(NCc2nc3ccccc3[nH]2)c2ncc(C3CC3)nc21 [Example 15, N-[(1H-benzimidazol-2-yl)methyl]-6-cyclopropyl-1-methyl-1H-pyrazolo[3,4-b]pyrazin-3-amine]
49.3 nM | – | – | – | CC1(C)CC(n2nc(NCc3nc4ccccc4[nH]3)c3ncc(C4CC4)nc32)CC(C)(C)O1 [Example 52, N-[(1H-benzimidazol-2-yl)methyl]-6-cyclopropyl-1-(2,2,6,6-tetramethyloxan-4-yl)-1H-pyrazolo[3,4-b]pyrazin-3-amine]
46.9 nM | – | – | – | c1ccc2[nH]c(CNc3nn(C4COC4)c4nc(C5CC5)cnc34)nc2c1 [Example 55, N-[(1H-benzimidazol-2-yl)methyl]-6-cyclopropyl-1-(oxetan-3-yl)-1H-pyrazolo[3,4-b]pyrazin-3-amine]
40.8 nM | 151 nM | >4901 | – | c1ccc2[nH]c(CNc3nn(C4CCOC4)c4nc(C5CC5)cnc34)nc2c1 (racemic) [Example 10, (±)-N-[(1H-benzimidazol-2-yl)methyl]-6-cyclopropyl-1-[oxolan-3-yl]-1H-pyrazolo[3,4-b]pyrazin-3-amine]
34.9 nM | 37.9 nM | – | – | CC1CC(n2nc(NCc3nc4ccccc4[nH]3)c3ncc(C4CC4)nc32)CCO1 (racemic) [Example 44, (±)-cis/trans-N-[(1H-benzimidazol-2-yl)methyl]-6-cyclopropyl-1-(2-methyloxan-4-yl)-1H-pyrazolo[3,4-b]pyrazin-3-amine]
13.1 nM | – | >1526 | – | Cc1ccc2[nH]c(CNc3nn(C4CCN(C)CC4)c4nc(C5CC5)cnc34)nc2c1 [Example 6, 6-cyclopropyl-N-[(5-methyl-1H-benzimidazol-2-yl)methyl]-1-(1-methylpiperidin-4-yl)-1H-pyrazolo[3,4-b]pyrazin-3-amine]
13.1 nM | – | – | – | c1ccc2[nH]c(CNc3nn(C4CC5(COC5)C4)c4nc(C5CC5)cnc34)nc2c1 [Example 54, N-[(1H-benzimidazol-2-yl)methyl]-6-cyclopropyl-1-(2-oxaspiro[3.3]heptan-6-yl)-1H-pyrazolo[3,4-b]pyrazin-3-amine]
12.6 nM | – | >1589 | 15.1 nM | CN1CCCC(n2nc(NCc3nc4ccccc4[nH]3)c3ncc(C4CC4)nc32)CC1 (single isomer, unassigned) [Example 37, (+) or (−)-N-[(1H-benzimidazol-2-yl)methyl]-6-cyclopropyl-1-[(4R*)-1-methylazepan-4-yl]-1H-pyrazolo[3,4-b]pyrazin-3-amine]
7.12 nM | 66.1 nM | – | – | CC(C)(O)C1CC(n2nc(NCc3nc4ccccc4[nH]3)c3ncc(C4CC4)nc32)C1 (mixture of isomers) [Example 48, 2-[cis/trans-3-(3-{[(1H-benzimidazol-2-yl)methyl]amino}-6-cyclopropyl-1H-pyrazolo[3,4-b]pyrazin-1-yl)cyclobutyl]propan-2-ol]
